Where two headings read alike, the source gives them in different places.
What was measured:
[1] = molecular target: Hsp90β (Homo sapiens (Human), UniProt P08238); test: Fluorescence polarization assay (FITC-GDA tracer displacement); assay type: binding; conditions: for Selectivity: Hsp90β over Hsp90α
Experimental: (§1) Florescence Polarization.
(§2) Assay was performed in 96-well format in black, flat bottom plates (Santa Cruz Biotechnology) with a final volume of 100 μL. […] Compounds were tested in triplicate wells (1% DMSO final concentration). For each plate, wells containing buffer only (background), tracer in buffer only (low polarization control), and protein and tracer in buffer with 1% DMSO (highpolarization control) were included. Plates were incubated at 4° C. with rocking for 24 h. […] Polarization values were correlated to % tracer bound and compound concentrations. The concentration at which the tracer was 50% displaced by the inhibitor was determined using Graphpad Prism.

[2] = molecular target: Hsp90α (Homo sapiens (Human), UniProt P07900); test: as above; assay type: binding
Experimental: as §1, §2

[3] = tested on: SkBr3; test: Anti-proliferation activity; assay type: cell-based; conditions: Homo sapiens, SK-BR-3
[4] = tested on: NCI-H23 cells; test: Anti-proliferation assay (MTS/PMS, 72 h); assay type: cell-based; conditions: Homo sapiens, non-small cell lung cancer
Experimental: Cells were grown to confluence and seeded at 2000 cells/well/0.1 mL in a 96-well plate and placed back in the incubator for 24 h. Compounds or vehicle were administered at the desired concentrations (1% DMSO final concentration) and incubated for 72 h. The % viable cells was determined using the MTS/PMS cell proliferation kit (Promega) per the manufacturer's instructions. Cells treated with vehicle were normalized to 100% proliferation and values adjusted accordingly.

[5] = tested on: MCF-7; test: Anti-proliferation activity; assay type: cell-based; conditions: Homo sapiens, MCF7
[6] = tested on: Grp94; test: Fluorescence polarization assay (FITC-GDA tracer displacement); assay type: binding
Experimental: as §1, §2

[7] = fluorescence polarization, read-out: Kd Hsp90β

Sequence of Hsp90β (P08238 whole entry): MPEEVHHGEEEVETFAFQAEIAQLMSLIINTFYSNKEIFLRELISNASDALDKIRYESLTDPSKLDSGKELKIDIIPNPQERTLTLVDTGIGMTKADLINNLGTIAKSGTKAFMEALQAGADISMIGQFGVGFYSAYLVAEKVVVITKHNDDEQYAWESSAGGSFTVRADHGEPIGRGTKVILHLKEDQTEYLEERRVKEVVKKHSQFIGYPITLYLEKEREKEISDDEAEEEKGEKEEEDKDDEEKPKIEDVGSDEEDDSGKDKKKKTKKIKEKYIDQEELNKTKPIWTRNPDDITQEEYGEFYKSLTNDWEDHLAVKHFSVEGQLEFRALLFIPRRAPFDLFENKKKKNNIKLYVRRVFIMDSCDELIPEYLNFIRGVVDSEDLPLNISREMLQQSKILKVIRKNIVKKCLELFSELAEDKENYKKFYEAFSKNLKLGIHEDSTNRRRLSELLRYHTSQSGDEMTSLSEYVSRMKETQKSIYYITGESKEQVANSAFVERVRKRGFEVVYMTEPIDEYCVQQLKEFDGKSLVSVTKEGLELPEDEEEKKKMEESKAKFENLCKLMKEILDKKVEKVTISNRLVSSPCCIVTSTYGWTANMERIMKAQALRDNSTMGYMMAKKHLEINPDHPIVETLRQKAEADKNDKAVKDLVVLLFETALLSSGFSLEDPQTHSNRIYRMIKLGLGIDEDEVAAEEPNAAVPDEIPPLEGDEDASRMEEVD

Structure (SMILES) | Kd [1, 7] [µM] | Kd ([2]; fluorescence polarization) [µM] | other results
CCCC1Cc2c(C(C)C)cc(C(=O)N3Cc4ccccc4C3)c(O)c2C1=O (stereo not drawn) [KUNB24] | 2.7 | ≥ 100 | Selectivity [1]: ≥37
CC(C)c1cc(C(=O)N2Cc3ccccc3C2)c(O)c(CO)c1O [KUNB14, (2,4-Dihydroxy-3-(hydroxymethyl)-5-isopropylphenyl)(isoindolin-2-yl)methanone] | 4.27 |  | 
CC1Cc2c(C(C)C)cc(C(=O)N3Cc4ccccc4C3)c(O)c2C1=O (stereo not drawn) [KUNB28] | 0.295 | ≥ 10 | Selectivity [1]: ≥34
CCC1Cc2c(C(C)C)cc(C(=O)N3Cc4ccccc4C3)c(O)c2C1=O (stereo not drawn) [KUNB23] | 0.58 | ≥ 10 | Selectivity [1]: ≥17
O=C(c1cc(Br)c2cn[nH]c2c1O)N1Cc2ccccc2C1 |  |  | IC50 [3]: 23.6 µM; IC50 [4]: 13.4 µM
CC(C)c1cc(C(=O)N2Cc3ccccc3C2)c(O)c2nc[nH]c12 [KUNB19] | 6.3 | ≥ 100 | Selectivity [1]: 1.6
C=CCc1c(O)c(C(=O)N2Cc3ccccc3C2)cc(C(C)C)c1OCOC [KUNB6, (3-Allyl-2-hydroxy-5-isopropyl-4-(methoxymethoxy)phenyl)(isoindolin-2-yl)methanone] |  |  | Kd [1]: ≥ 100 µM
CC(C)c1cc(C(=O)N2Cc3ccccc3C2)c(O)c2cn[nH]c12 [KUNB18] | 3.71 | 82.5 | Selectivity [1]: 22
CCc1cc(O)c(C(=O)N2Cc3ccccc3C2)cc1C(C)C [CH3] | > 50 | > 50 | 
CC(C)c1cc(C(=O)N2Cc3ccccc3C2)c(O)c2c1CCC2=O [KUNB22] | 0.11 | 9.3 | Selectivity [1]: 85
CC(C)c1cc(C(=O)N2Cc3ccccc3C2)c(O)c2c1C1C=NNC1O2 (stereo not drawn) [KUNB17] | 0.72 | ≥ 10 | Selectivity [1]: ≥14
CCCc1c(O)c(C(=O)N2Cc3ccccc3C2)cc(C(C)C)c1OCOC [KUNB5, (2-Hydroxy-5-isopropyl-4-(methoxymethoxy)-3-propylphenyl)(isoindolin-2-yl)methanone] |  |  | Kd [1]: 6.3 µM
CC(C)c1cc(C(=O)N2Cc3ccc(F)cc3C2)c(O)c2cnoc12 |  |  | IC50 [5]: 16.6 µM; IC50 [4]: 5.76 µM
COCOc1c(C(C)C)cc(C(=O)N2Cc3ccccc3C2)c(O)c1CCO [KUNB7, (2-Hydroxy-3-(2-hydroxyethyl)-5-isopropyl-4-(methoxymethoxy)phenyl) (isoindolin-2-yl)methanone] |  |  | Kd [1]: ≥ 100 µM
CC(C)c1cc(C(=O)N2Cc3ccccc3C2)c(O)cc1CCl [Cl] | 25.2 ± 1.45 | > 100 | 
CCN1Cc2c(C(C)C)cc(C(=O)N3Cc4ccccc4C3)c(O)c2C1=O [KUNB26] | 0.53 | ≥ 10 | Selectivity [1]: ≥19
CC(C)c1cc(C(=O)N2Cc3ccccc3C2)c(O)c(CO)c1O [drawing 45] |  |  | IC50 [3]: 9.13 ± 1.03 µM; IC50 [5]: 13.7 ± 1.46 µM; IC50 [4]: 3.9 ± 0.33 µM
COCc1cc(O)c(C(=O)N2Cc3ccccc3C2)cc1C(C)C [OMe] | > 50 | > 50 | 
CC(C)c1cc(C(=O)N2Cc3ccccc3C2)c(O)cc1N [NH2] | 0.71 | 0.46 ± 0.22 | 

Structure (SMILES) | Kd [1, 7] [µM] | Kd ([2]; fluorescence polarization) [µM] | other results
CC(C)c1cc(C(=O)N2Cc3ccc(F)cc3C2)c(O)c(CO)c1O |  |  | IC50 [5]: 13.2 µM; IC50 [4]: 2.13 ± 0.7 µM
CC(C)c1cc(C(=O)N2Cc3ccccc3C2)c(O)c(CN)c1O [KUNB4, (3-(Aminomethyl)-2,4-dihydroxy-5-isopropylphenyl)(isoindolin-2-yl)methanone] |  |  | Kd [1]: ≥ 100 µM
CC(C)c1ccc(O)c(C(=O)N2Cc3ccccc3C2)c1 [Compound 1] | 1.63 | 3.21 | selectivity for Hsp90β over Hsp90α [1]: ~2 fold
CC(C)c1cc(C(=O)N2Cc3ccccc3C2)c(O)cc1C=O [Compound 4, 5-Hydroxy-4-(isoindoline-2-carbonyl)-2-isopropylbenzaldehyde] |  |  | Kd [2]: 1.55 µM
CC(C)c1cc(C(=O)N2Cc3ccc(F)cc3C2)c2oncc2c1O [KUNB31b, (5-fluoroisoindolin-2-yl)(4-hydroxy-5-isopropylbenzo[d]isoxazol-7-yl)methanone] |  |  | selectivity for Hsp90β over Hsp90α [1]: ~50 fold; selectivity for Hsp90β over Grp94 [6]: ~50 fold
CC(C)c1cc(C(=O)N2Cc3ccccc3C2)c(O)c(C=O)c1O [KUNB1, 2,6-Dihydroxy-3-(isoindoline-2-carbonyl)-5-isopropylbenzaldehyde] | ≥ 100 |  | 
CC(C)c1cc(C(=O)N2Cc3ccccc3C2)c(O)c2cnoc12 |  |  | IC50 [3]: 38.2 ± 2.75 µM; IC50 [5]: 28.3 ± 1.47 µM
CC(C)c1cc(C(=O)N2Cc3ccccc3C2)c(O)cc1CC#N [CN] |  | 2.28 ± 0.12 | 
CNCc1cc(O)c(C(=O)N2Cc3ccccc3C2)cc1C(C)C [NHCH3] | 23.2 ± 1.07 | > 100 | 
COCc1cc(O)c(C(=O)N2Cc3ccccc3C2)cc1C(C)C [Compound 3, (2-Hydroxy-5-isopropyl-4-(methoxymethyl)phenyl)(isoindolin-2-yl)methanone] |  |  | binding to Hsp90β ([1]; at 10 μM): did not bind; binding to Hsp90α ([2]; at 10 μM): did not bind
CC(C)c1cc(C(=O)N2Cc3ccccc3C2)c(O)cc1CBr [Br] | 0.73 ± 0.11 | 4.98 ± 0.97 | 
CC(C)c1cc(C(=O)N2Cc3ccccc3C2)c(O)c2c1CNC2=O [KUNB25] | 0.33 | ≥ 10 | Selectivity [1]: ≥30
CC(C)c1cc(C(=O)N2Cc3ccccc3C2)c(O)cc1CC#N [Compound 2, 2-(5-Hydroxy-4-(isoindoline-2-carbonyl)-2-isopropylphenyl)acetonitrile] | 0.97 |  | selectivity for Hsp90β over Hsp90α [1]: ~2.5 fold
CCc1c(O)c(C(=O)N2Cc3ccccc3C2)cc(C(C)C)c1O [KUNB3, (3-Ethyl-2,4-dihydroxy-5-isopropylphenyl)(isoindolin-2-yl)methanone] | 3.31 |  | 
CC(C)c1cc(C(=O)N2Cc3ccccc3C2)c(O)cc1CO [OH] | 1.97 ± 0.07 | 4.21 ± 0.62 | 
C=Cc1c(O)c(C(=O)N2Cc3ccccc3C2)cc(C(C)C)c1O [KUNB2, (2,4-Dihydroxy-5-isopropyl-3-vinylphenyl)(isoindolin-2-yl)methanone] | 5.24 |  | 
CC(C)c1cc(C(=O)N2Cc3ccccc3C2)c(O)c2[nH]ncc12 |  |  | IC50 [3]: 29.7 µM; IC50 [5]: 19.1 µM; IC50 [4]: 13.7 µM
CC(C)c1cc(C(=O)N2Cc3ccccc3C2)c(O)cc1C=O [CHO] |  |  | Kd [2]: 1.21 ± 0.12 µM

Source: US10927076B2, “HSP90B N-terminal isoform-selective inhibitors” (priority 2017, dated 2021)
